Experimental data from ChEMBL document CHEMBL1201862, “PubChem BioAssay data set” (2004).
The source made the active and inactive calls. No stated cut-off is given here; in the data, actives have a measured IC50 and inactives only a lower limit.

These molecules were tested against Envelope glycoprotein gp160 (Human immunodeficiency virus 1, UniProt Q6QLK5) (assay: cell-free HIV fusion peptide-binding blockers – biochemical, uHTS, fluorescence dequenching, […] (AID 1986)).
Sequence of Envelope glycoprotein gp160 (Q6QLK5 whole entry, the tested form may be a part): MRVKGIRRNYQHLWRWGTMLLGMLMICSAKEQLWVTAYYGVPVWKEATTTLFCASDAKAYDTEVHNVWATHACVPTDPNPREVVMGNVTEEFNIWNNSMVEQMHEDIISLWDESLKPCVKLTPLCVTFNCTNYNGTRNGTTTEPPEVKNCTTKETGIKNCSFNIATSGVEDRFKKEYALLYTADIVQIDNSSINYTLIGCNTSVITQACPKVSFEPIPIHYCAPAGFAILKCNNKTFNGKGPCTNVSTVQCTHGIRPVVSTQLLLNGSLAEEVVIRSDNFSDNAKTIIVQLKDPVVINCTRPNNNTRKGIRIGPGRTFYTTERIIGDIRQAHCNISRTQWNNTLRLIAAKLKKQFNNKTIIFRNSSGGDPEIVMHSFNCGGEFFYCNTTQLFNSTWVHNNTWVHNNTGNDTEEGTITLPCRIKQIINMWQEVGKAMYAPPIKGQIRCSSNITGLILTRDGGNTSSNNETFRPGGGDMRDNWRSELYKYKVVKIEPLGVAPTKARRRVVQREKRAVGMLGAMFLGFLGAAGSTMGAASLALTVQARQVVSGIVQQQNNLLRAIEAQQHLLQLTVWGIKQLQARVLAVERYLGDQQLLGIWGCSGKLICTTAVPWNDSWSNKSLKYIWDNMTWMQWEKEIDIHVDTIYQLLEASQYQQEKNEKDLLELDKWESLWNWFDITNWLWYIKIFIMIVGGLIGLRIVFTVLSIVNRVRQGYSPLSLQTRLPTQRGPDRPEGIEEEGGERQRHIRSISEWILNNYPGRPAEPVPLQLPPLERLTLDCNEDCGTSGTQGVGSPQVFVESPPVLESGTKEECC
In the case of `O=C(NN1C(=O)/C(=C\c2ccc(O)c([N+](=O)[O-])c2)SC1=S)c1ccccc1Cl`, the IC50 is reported as 24.9 µM (active). In the case of `COc1cc(/C=C2/C(=O)NN(c3ccc(Cl)cc3)C2=O)cc(Br)c1O`, the IC50 is reported as 15.5 µM (active). For `CC1=CN2C(=N)/C(=C/c3cc(Cl)c(O)c(Cl)c3)C(=O)N=C2S1`, the IC50 was 26.2 µM (active).
